Results on 1 compound are retold here after article PMC5218480 (PLoS ONE, 2017).

This test deals with MV-4-11 cells. Nature of the test: Gene expression microarray analysis (Affymetrix PrimeView) and GSEA. It is filed as cell-based, human. Also noted: RFU PODN (11730768_x_at) / Fold change /veh PODN (11730768_x_at) / RFU LINC00158 (11744669_a_at) / Fold change /veh LINC00158 (11744669_a_at) / RFU DUSP10 (11751237_a_at) / Fold change /veh DUSP10 (11751237_a_at) / RFU ID3 (11757404_x_at) / Fold change /veh ID3 (11757404_x_at) / RFU PLEKHG5 (11737974_s_at) / Fold change /veh PLEKHG5 (11737974_s_at) / RFU LRRC4B (11730491_at) / Fold change /veh LRRC4B (11730491_at) / RFU GIMAP4 (11747438_a_at) / Fold change /veh GIMAP4 (11747438_a_at) / RFU KRT8 (11758183_x_at) / Fold change /veh KRT8 (11758183_x_at) / RFU CNN1 (11734310_a_at) / Fold change /veh CNN1 (11734310_a_at) / RFU VPS37D (11726825_at) / Fold change /veh VPS37D (11726825_at) / RFU C10orf10 (11716522_x_at) / Fold change /veh C10orf10 (11716522_x_at) / RFU KIR2DL2 /// KIR2DL4 /// KIR2DL5A /// KIR2DL5B /// KIR2DS1 /// KIR2DS2 /// KIR2DS3 /// KIR2DS4 /// KIR3DL3 /// KIR3DL3 /// KIR3DS1 (11738374_at) / Fold change /veh KIR2DL2 /// KIR2DL4 /// KIR2DL5A /// KIR2DL5B /// KIR2DS1 /// KIR2DS2 /// KIR2DS3 /// KIR2DS4 /// KIR3DL3 /// KIR3DL3 /// KIR3DS1 (11738374_at) / RFU C1QL1 (11718748_at) / Fold change /veh C1QL1 (11718748_at) / RFU TMPRSS4 (11747572_a_at) / Fold change /veh TMPRSS4 (11747572_a_at) / RFU HAMP (11756126_x_at) / Fold change /veh HAMP (11756126_x_at) / RFU RNFT2 (11725882_a_at) / Fold change /veh RNFT2 (11725882_a_at) / RFU NR4A2 (11747474_a_at) / Fold change /veh NR4A2 (11747474_a_at) / RFU ABCC12 (11746883_a_at) / Fold change /veh ABCC12 (11746883_a_at) / RFU TMEM136 (11760407_x_at) / Fold change /veh TMEM136 (11760407_x_at) / RFU CLDN22 /// WWC2 (11732394_at) / Fold change /veh CLDN22 /// WWC2 (11732394_at) / RFU HLA-DPB1 (11760878_x_at) / Fold change /veh HLA-DPB1 (11760878_x_at) / RFU SPINT1 (11716480_a_at) / Fold change /veh SPINT1 (11716480_a_at) / RFU GAP43 (11754022_s_at) / Fold change /veh GAP43 (11754022_s_at) / RFU A4GNT (11735810_at) / Fold change /veh A4GNT (11735810_at) / RFU PRB3 (11715151_x_at) / Fold change /veh PRB3 (11715151_x_at) / RFU TUBB4B (11761932_at) / Fold change /veh TUBB4B (11761932_at) / RFU CAPN14 (11732068_a_at) / Fold change /veh CAPN14 (11732068_a_at) / RFU TMCC2 (11721928_a_at) / Fold change /veh TMCC2 (11721928_a_at) / RFU IRGQ (11745062_a_at) / Fold change /veh IRGQ (11745062_a_at) / RFU FAM174B (11720279_a_at) / Fold change /veh FAM174B (11720279_a_at) / RFU TMPRSS4 (11748680_a_at) / Fold change /veh TMPRSS4 (11748680_a_at) / RFU FAM212B (11763350_a_at) / Fold change /veh FAM212B (11763350_a_at) / RFU PLEKHG5 (11743358_a_at) / Fold change /veh PLEKHG5 (11743358_a_at) / RFU ZSCAN30 (11745921_a_at) / Fold change /veh ZSCAN30 (11745921_a_at) / RFU CMKLR1 (11741424_a_at) / Fold change /veh CMKLR1 (11741424_a_at) / RFU LOC101060620 /// MAPK8IP1 (11723275_at) / Fold change /veh LOC101060620 /// MAPK8IP1 (11723275_at) / RFU SPTSSB (11747773_x_at) / Fold change /veh SPTSSB (11747773_x_at) / RFU PRSS12 (11739890_at) / Fold change /veh PRSS12 (11739890_at) / RFU BIN1 (11741810_x_at) / Fold change /veh BIN1 (11741810_x_at) / RFU WNT11 (11732464_a_at) / Fold change /veh WNT11 (11732464_a_at) / RFU C10orf10 (11716521_a_at) / Fold change /veh C10orf10 (11716521_a_at) / RFU C5orf56 (11738089_at) / Fold change /veh C5orf56 (11738089_at) / RFU CYB561 (11721691_x_at) / Fold change /veh CYB561 (11721691_x_at) / RFU ANKRD19P (11752326_a_at) / Fold change /veh ANKRD19P (11752326_a_at) / RFU OR2T12 /// OR2T33 /// OR2T8 (11738714_s_at) / Fold change /veh OR2T12 /// OR2T33 /// OR2T8 (11738714_s_at) / RFU VCAN (11748164_a_at) / Fold change /veh VCAN (11748164_a_at) / RFU JSRP1 (11732532_at) / Fold change /veh JSRP1 (11732532_at) / RFU KRTAP10-11 (11738290_x_at) / Fold change /veh KRTAP10-11 (11738290_x_at) / RFU MYO3A (11730013_a_at) / Fold change /veh MYO3A (11730013_a_at) / RFU EBF3 (11725865_a_at) / Fold change /veh EBF3 (11725865_a_at) / RFU CAMK2N1 (11719241_x_at) / Fold change /veh CAMK2N1 (11719241_x_at) / RFU C5orf56 (11738088_a_at) / Fold change /veh C5orf56 (11738088_a_at) / RFU OLFML3 (11715873_a_at) / Fold change /veh OLFML3 (11715873_a_at) / RFU LOC100653217 /// NTM (11731650_a_at) / Fold change /veh LOC100653217 /// NTM (11731650_a_at) / RFU MAPK11 (11762145_a_at) / Fold change /veh MAPK11 (11762145_a_at) / RFU FIZ1 (11724087_x_at) / Fold change /veh FIZ1 (11724087_x_at) / RFU OASL (11726364_x_at) / Fold change /veh OASL (11726364_x_at) / RFU SOX15 (11748057_x_at) / Fold change /veh SOX15 (11748057_x_at) / RFU CD79A (11719716_a_at) / Fold change /veh CD79A (11719716_a_at) / RFU HIST1H1D (11736915_at) / Fold change /veh HIST1H1D (11736915_at) / RFU CASKIN2 (11723855_a_at) / Fold change /veh CASKIN2 (11723855_a_at) / RFU LOC730098 (11760151_x_at) / Fold change /veh LOC730098 (11760151_x_at) / RFU OR4N2 (11742367_at) / Fold change /veh OR4N2 (11742367_at) / RFU PRRT2 (11749266_a_at) / Fold change /veh PRRT2 (11749266_a_at) / RFU SNX32 (11753110_a_at) / Fold change /veh SNX32 (11753110_a_at) / RFU CDHR5 (11726645_a_at) / Fold change /veh CDHR5 (11726645_a_at) / RFU RCAN1 (11760418_a_at) / Fold change /veh RCAN1 (11760418_a_at) / RFU FAM167A (11723789_a_at) / Fold change /veh FAM167A (11723789_a_at) / RFU FAM26E (11764081_at) / Fold change /veh FAM26E (11764081_at) / RFU ISYNA1 (11749810_s_at) / Fold change /veh ISYNA1 (11749810_s_at) / RFU ACY1 (11761880_at) / Fold change /veh ACY1 (11761880_at) / RFU 11764098_at / Fold change /veh 11764098_at / RFU SAMD14 (11745864_x_at) / Fold change /veh SAMD14 (11745864_x_at) / RFU NPB (11741838_a_at) / Fold change /veh NPB (11741838_a_at) / RFU TMPRSS6 (11731388_a_at) / Fold change /veh TMPRSS6 (11731388_a_at) / RFU KRTAP10-2 (11738614_at) / Fold change /veh KRTAP10-2 (11738614_at) / RFU ARHGAP8 /// PRR5-ARHGAP8 (11727945_x_at) / Fold change /veh ARHGAP8 /// PRR5-ARHGAP8 (11727945_x_at) / RFU KRTAP5-7 /// NADSYN1 (11734609_at) / Fold change /veh KRTAP5-7 /// NADSYN1 (11734609_at) / RFU RASL12 (11751679_a_at) / Fold change /veh RASL12 (11751679_a_at) / RFU CDKN2B (11736163_a_at) / Fold change /veh CDKN2B (11736163_a_at) / RFU PRF1 (11729649_at) / Fold change /veh PRF1 (11729649_at) / RFU, ZNF638 /// ZNF638-IT1 / Fold change vs veh, ZNF638 /// ZNF638-IT1 / RFU, PANK3 / Fold change vs veh, PANK3 / RFU, SH3YL1 / Fold change vs veh, SH3YL1 / RFU, ZEB2 / Fold change vs veh, ZEB2 / RFU, NRIP1 / Fold change vs veh, NRIP1 / RFU, PTTG1IP / Fold change vs veh, PTTG1IP / RFU, CAPN2 / Fold change vs veh, CAPN2 / RFU, MED14 / Fold change vs veh, MED14 / RFU, SNORA58 / Fold change vs veh, SNORA58 / RFU, C1orf63 / Fold change vs veh, C1orf63 / RFU, LRRFIP1 / Fold change vs veh, LRRFIP1 / RFU, NDUFAF7 / Fold change vs veh, NDUFAF7 / RFU, SLC12A2 / Fold change vs veh, SLC12A2 / RFU, IBTK / Fold change vs veh, IBTK / RFU, ESF1 / Fold change vs veh, ESF1 / Fold change vs veh, TMEM50B / RFU, TAOK1 / Fold change vs veh, TAOK1 / RFU, ACBD3 / Fold change vs veh, ACBD3 / RFU, TMA16 / Fold change vs veh, TMA16 / RFU, RWDD3 / Fold change vs veh, RWDD3 / RFU, BCAT1 / Fold change vs veh, BCAT1 / RFU, EDEM3 / Fold change vs veh, EDEM3 / RFU, TMEM33 / Fold change vs veh, TMEM33 / RFU, WDR75 / Fold change vs veh, WDR75 / RFU, AHCTF1 / Fold change vs veh, AHCTF1 / RFU, TFRC / Fold change vs veh, TFRC / RFU, ZDHHC17 / Fold change vs veh, ZDHHC17 / RFU, NOM1 / Fold change vs veh, NOM1 / RFU, ARL8B / Fold change vs veh, ARL8B / RFU, ZBTB11 / Fold change vs veh, ZBTB11 / RFU, TAMM41 / Fold change vs veh, TAMM41 / RFU, KIAA1704 /// LOC100996395 / Fold change vs veh, KIAA1704 /// LOC100996395 / RFU, ING1 / Fold change vs veh, ING1 / RFU, TRMT61B / Fold change vs veh, TRMT61B / RFU, FUBP3 / Fold change vs veh, FUBP3 / RFU, TP53 / Fold change vs veh, TP53 / RFU, TNKS2 / Fold change vs veh, TNKS2 / RFU, ZFP14 / Fold change vs veh, ZFP14 / RFU, ACTR2 / Fold change vs veh, ACTR2 / RFU, PPP3R1 / Fold change vs veh, PPP3R1 / RFU, PIK3R1 / Fold change vs veh, PIK3R1 / RFU, HNRNPA1 / Fold change vs veh, HNRNPA1 / RFU, RNF170 / Fold change vs veh, RNF170 / RFU, ZNF28 / Fold change vs veh, ZNF28 / RFU, RNGTT / Fold change vs veh, RNGTT / RFU, OGT / Fold change vs veh, OGT / RFU, BRD1 / Fold change vs veh, BRD1 / RFU, MARS / Fold change vs veh, MARS / RFU, ZNF655 / Fold change vs veh, ZNF655 / RFU, FAHD1 / Fold change vs veh, FAHD1 / RFU, BDP1 / Fold change vs veh, BDP1 / RFU, LRRCC1 / Fold change vs veh, LRRCC1 / RFU, ARID1A / Fold change vs veh, ARID1A / RFU, ZNF146 / Fold change vs veh, ZNF146 / RFU, ZNF330 / Fold change vs veh, ZNF330 / RFU, GPN3 / Fold change vs veh, GPN3 / RFU, C9orf123 / Fold change vs veh, C9orf123 / RFU, N4BP2L2 / Fold change vs veh, N4BP2L2 / RFU, ARFIP1 / Fold change vs veh, ARFIP1 / RFU, FAM179B / Fold change vs veh, FAM179B / RFU, BCL10 / Fold change vs veh, BCL10 / RFU, UHRF1BP1L / Fold change vs veh, UHRF1BP1L / RFU, BET1 / Fold change vs veh, BET1 / RFU, CNOT2 / Fold change vs veh, CNOT2 / RFU, ZNF268 / Fold change vs veh, ZNF268 / Fold change vs veh, ZNF507 / RFU, DGCR2 / Fold change vs veh, DGCR2 / RFU, WDSUB1 / Fold change vs veh, WDSUB1 / Fold change vs veh, HSP90B1 /// MIR3652 / RFU, ADSS / Fold change vs veh, ADSS / RFU, GK / Fold change vs veh, GK / RFU, ZNF148 / Fold change vs veh, ZNF148 / RFU, TAF9 / Fold change vs veh, TAF9 / RFU, SLC1A5 / Fold change vs veh, SLC1A5 / RFU, SLMO2 / Fold change vs veh, SLMO2 / RFU, ABCC4 / Fold change vs veh, ABCC4 / RFU, LOC101060439 /// RAP1B / Fold change vs veh, LOC101060439 /// RAP1B / RFU, RFX7 / Fold change vs veh, RFX7 / RFU, GTPBP10 / Fold change vs veh, GTPBP10 / RFU, CNEP1R1 / Fold change vs veh, CNEP1R1 / RFU, BIVM-ERCC5 /// ERCC5 / Fold change vs veh, BIVM-ERCC5 /// ERCC5 / RFU, ILF3 / Fold change vs veh, ILF3 / RFU 11762660_at / Fold change /veh 11762660_at / RFU VCAN (11757783_s_at) / Fold change /veh VCAN (11757783_s_at) / RFU DDX43 (11728927_at) / Fold change /veh DDX43 (11728927_at) / RFU KRT8 (11758188_x_at) / Fold change /veh KRT8 (11758188_x_at) / RFU NKD1 (11759106_at) / Fold change /veh NKD1 (11759106_at) / RFU SRD5A1 (11742802_a_at) / Fold change /veh SRD5A1 (11742802_a_at) / RFU TPSAB1 /// TPSB2 (11721975_s_at) / Fold change /veh TPSAB1 /// TPSB2 (11721975_s_at) / RFU GSTM3 (11746129_a_at) / Fold change /veh GSTM3 (11746129_a_at) / RFU IL23R (11737362_x_at) / Fold change /veh IL23R (11737362_x_at) / RFU TMEM51 (11727254_a_at) / Fold change /veh TMEM51 (11727254_a_at) / RFU PIWIL2 (11732686_x_at) / Fold change /veh PIWIL2 (11732686_x_at) / RFU ORM1 (11744905_x_at) / Fold change /veh ORM1 (11744905_x_at) / RFU CCDC152 (11743942_at) / Fold change /veh CCDC152 (11743942_at) / RFU ECM1 (11717891_a_at) / Fold change /veh ECM1 (11717891_a_at) / RFU IL23R (11748794_a_at) / Fold change /veh IL23R (11748794_a_at) / RFU TNFAIP8L3 (11732012_x_at) / Fold change /veh TNFAIP8L3 (11732012_x_at) / RFU MBOAT4 (11741988_at) / Fold change /veh MBOAT4 (11741988_at) / RFU 11764193_at / Fold change /veh 11764193_at / RFU TMEM53 (11763286_at) / Fold change /veh TMEM53 (11763286_at) / RFU MAGEB2 (11727129_at) / Fold change /veh MAGEB2 (11727129_at) / RFU TMEM200A (11744735_a_at) / Fold change /veh TMEM200A (11744735_a_at) / RFU CCDC152 (11751479_a_at) / Fold change /veh CCDC152 (11751479_a_at) / RFU FAM211A (11726209_a_at) / Fold change /veh FAM211A (11726209_a_at) / RFU RGS16 (11746705_a_at) / Fold change /veh RGS16 (11746705_a_at) / RFU VCAN (11755009_s_at) / Fold change /veh VCAN (11755009_s_at) / RFU RHOB (11743442_s_at) / Fold change /veh RHOB (11743442_s_at) / RFU RGS16 (11720943_a_at) / Fold change /veh RGS16 (11720943_a_at) / RFU RGS16 (11720944_at) / Fold change /veh RGS16 (11720944_at) / RFU, VPS4B / Fold change vs veh, VPS4B / RFU, CREB1 / Fold change vs veh, CREB1 / RFU, DNAJC13 / Fold change vs veh, DNAJC13 / RFU, GNAQ / Fold change vs veh, GNAQ / RFU, CDK5R1 / Fold change vs veh, CDK5R1 / RFU, ZRANB3 / Fold change vs veh, ZRANB3 / RFU, CUL4A / Fold change vs veh, CUL4A / RFU, CCNY / Fold change vs veh, CCNY / RFU, UFL1 / Fold change vs veh, UFL1 / RFU, COG3 / Fold change vs veh, COG3 / RFU, DIAPH2 / Fold change vs veh, DIAPH2 / RFU, SKA2 / Fold change vs veh, SKA2 / RFU, AFF3 / Fold change vs veh, AFF3 / RFU, LMF1 / Fold change vs veh, LMF1 / RFU, IPO11 / Fold change vs veh, IPO11 / RFU, DFFB / Fold change vs veh, DFFB / RFU, FOXP1 / Fold change vs veh, FOXP1 / RFU, CARD8 / Fold change vs veh, CARD8 / RFU, STRN3 / Fold change vs veh, STRN3 / RFU, ADK / Fold change vs veh, ADK / RFU, RASSF2 / Fold change vs veh, RASSF2 / RFU, WIPF1 / Fold change vs veh, WIPF1 / RFU, LARP1B / Fold change vs veh, LARP1B / RFU, RASA1 / Fold change vs veh, RASA1 / RFU, RB1 / Fold change vs veh, RB1 / RFU, PPFIA1 / Fold change vs veh, PPFIA1 / RFU, MAT2A / Fold change vs veh, MAT2A / RFU, CCT5 / Fold change vs veh, CCT5 / RFU, WDR92 / Fold change vs veh, WDR92 / RFU, CUX1 / Fold change vs veh, CUX1 / RFU, TTC7A / Fold change vs veh, TTC7A / RFU, TMEM135 / Fold change vs veh, TMEM135 / RFU, DEPTOR / Fold change vs veh, DEPTOR / RFU, CPM / Fold change vs veh, CPM / RFU, DNAJB6 / Fold change vs veh, DNAJB6 / RFU, CACNA2D3 / Fold change vs veh, CACNA2D3 / RFU, DTX4 / Fold change vs veh, DTX4 / RFU, TFCP2 / Fold change vs veh, TFCP2 / RFU, GMCL1 /// GMCL1P1 / Fold change vs veh, GMCL1 /// GMCL1P1 / RFU, AEBP2 / Fold change vs veh, AEBP2 / RFU, SNHG1 /// SNORD22 /// SNORD25 /// SNORD26 /// SNORD27 /// SNORD28 /// SNORD29 /// SNORD31 / Fold change vs veh, SNHG1 /// SNORD22 /// SNORD25 /// SNORD26 /// SNORD27 /// SNORD28 /// SNORD29 /// SNORD31 / Fold change (Aza/veh), C12orf56 (ProbeSet 11735607_a_at) / Fold change (ACY-1035/veh), C12orf56 (ProbeSet 11735607_a_at) / Fold change (Aza/veh), FGFR1OP (ProbeSet 11751329_s_at) / Fold change (ACY-1035/veh), FGFR1OP (ProbeSet 11751329_s_at) / Fold change (Aza/veh), VPS36 (ProbeSet 11739960_a_at) / Fold change (ACY-1035/veh), VPS36 (ProbeSet 11739960_a_at) / RFU SYPL1 (11715823_x_at) / Fold change /veh SYPL1 (11715823_x_at) / RFU IGFBP7 (11715501_s_at) / Fold change /veh IGFBP7 (11715501_s_at) / RFU REEP3 (11722064_at) / Fold change /veh REEP3 (11722064_at) / RFU IGLL1 (11728026_x_at) / Fold change /veh IGLL1 (11728026_x_at): dose or concentration left out as unconfirmed. The conditions noted are these: ProbeSet 11721611_a_at; LIST D.

Regarding `Nc1ccc(-c2cccs2)cc1NC(=O)c1ccc2c(c1)cc(C1CC1)n2CCN1CCOCC1` [ACY-1035], the “Fold change vs veh, IPO11” value came out at 0.84.
